ChEMBL document CHEMBL1145148, “Discovery of (2S)-N-[(1R)-2-[4-cyclohexyl-4-[[(1,1-dimethylethyl)amino]carbonyl]-1-piperidinyl]-1-[(4-fluorophenyl)methyl]-2-oxoethyl]-4-methyl-2-piperazinecarboxamide (MB243), a potent and selective melanocortin subtype-4 receptor agonist” (Bioorg Med Chem Lett, 2005)
Values joined by “and” are separate entries in the source; they are usually repeats but may differ in a detail not shown here. Equal entries are not always repeated.

What was measured:
[1] = target: T1, Melanocortin receptor 5 (Homo sapiens, UniProt P33032); assay: Concentration of compound at 50% maximum cAMP accumulation at human melanocortin-5 receptor; type: functional
T1 sequence (P33032 whole entry): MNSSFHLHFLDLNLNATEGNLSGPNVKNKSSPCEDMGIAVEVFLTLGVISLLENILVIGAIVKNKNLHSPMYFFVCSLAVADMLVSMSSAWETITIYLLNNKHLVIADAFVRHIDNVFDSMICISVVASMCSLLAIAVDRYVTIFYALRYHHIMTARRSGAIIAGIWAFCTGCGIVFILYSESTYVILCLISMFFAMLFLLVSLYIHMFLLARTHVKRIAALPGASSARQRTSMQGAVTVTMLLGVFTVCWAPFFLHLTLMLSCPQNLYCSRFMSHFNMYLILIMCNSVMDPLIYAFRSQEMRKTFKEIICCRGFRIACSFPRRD

[2] = target: T2, Melanocortin receptor 3 (Homo sapiens, UniProt P41968); assay: Concentration of compound at 50% maximum cAMP accumulation at human melanocortin-3 receptor; type: functional
T2 sequence (P41968 whole entry): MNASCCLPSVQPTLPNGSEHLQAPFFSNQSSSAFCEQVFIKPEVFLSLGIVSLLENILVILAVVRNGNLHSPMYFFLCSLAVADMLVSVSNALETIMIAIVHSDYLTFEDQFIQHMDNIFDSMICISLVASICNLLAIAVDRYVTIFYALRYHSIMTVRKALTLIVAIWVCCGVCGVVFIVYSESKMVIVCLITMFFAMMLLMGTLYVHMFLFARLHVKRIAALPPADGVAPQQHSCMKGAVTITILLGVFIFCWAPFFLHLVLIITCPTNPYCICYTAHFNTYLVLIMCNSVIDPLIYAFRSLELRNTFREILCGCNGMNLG

[3] = target: T3, Melanocortin receptor 4 (Homo sapiens, UniProt P32245); assay: Concentration for 50% inhibition of human melanocortin-4 receptor expressed in CHO cells using [125I]NDP-alpha-MSH as radioligand; type: cell-based
T3 sequence (P32245 whole entry): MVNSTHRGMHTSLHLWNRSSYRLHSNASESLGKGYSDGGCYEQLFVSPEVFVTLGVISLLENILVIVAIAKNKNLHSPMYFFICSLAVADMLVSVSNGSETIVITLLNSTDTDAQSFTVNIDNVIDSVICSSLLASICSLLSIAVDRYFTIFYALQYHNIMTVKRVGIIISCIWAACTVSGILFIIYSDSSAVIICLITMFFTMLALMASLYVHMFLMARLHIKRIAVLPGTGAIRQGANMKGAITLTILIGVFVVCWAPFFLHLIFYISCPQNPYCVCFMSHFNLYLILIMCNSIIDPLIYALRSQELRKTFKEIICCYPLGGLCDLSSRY

[4] = target: T1, Melanocortin receptor 5; assay: Effective concentration towards human melanocortin-5 receptor mediated cAMP accumulation in CHO cells; type: functional, cell-based
[5] = target: T3, Melanocortin receptor 4; assay: Effective concentration towards human melanocortin-4 receptor mediated cAMP accumulation in CHO cells; type: functional, cell-based
[6] = target: T2, Melanocortin receptor 3; assay: Effective concentration towards human melanocortin-3 receptor mediated cAMP accumulation in CHO cells; type: functional, cell-based, Rattus norvegicus
[7] = target: T2, Melanocortin receptor 3; assay: Concentration for 50% inhibition of human melanocortin-3 receptor expressed in CHO cells using [125I]NDP-alpha-MSH as radioligand; type: cell-based
[8] = Clearance at 1 mg/kg intravenous administration and 5 mg/kg peroral administration; type: ADME, organism-based; conditions: rat, in vivo
[9] = Vdss at 1 mg/kg intravenous administration and 2 mg/kg peroral administration; type: ADME, organism-based; conditions: cercopithecidae, in vivo, read-out: Vdss
[10] = target: Melanocortin receptor 4 (Rattus norvegicus) (UniProt P70596); assay: Concentration of compound at 50% maximum cAMP accumulation at rat melanocortin-4 receptor; type: functional
Melanocortin receptor 4 (Rattus norvegicus), sequence (P70596 whole entry): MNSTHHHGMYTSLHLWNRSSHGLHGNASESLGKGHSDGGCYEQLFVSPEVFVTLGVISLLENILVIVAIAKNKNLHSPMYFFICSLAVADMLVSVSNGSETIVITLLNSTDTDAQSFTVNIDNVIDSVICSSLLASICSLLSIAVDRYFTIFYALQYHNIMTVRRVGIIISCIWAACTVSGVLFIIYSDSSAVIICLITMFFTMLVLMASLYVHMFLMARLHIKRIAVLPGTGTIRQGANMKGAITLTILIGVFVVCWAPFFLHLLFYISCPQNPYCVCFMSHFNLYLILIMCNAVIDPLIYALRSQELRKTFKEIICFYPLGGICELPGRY

[11] = target: Melanocortin receptor 3 (Rattus norvegicus) (UniProt P32244); assay: Concentration of compound at 50% maximum cAMP accumulation at rat melanocortin-3 receptor; type: functional
Melanocortin receptor 3 (Rattus norvegicus), sequence (P32244 whole entry): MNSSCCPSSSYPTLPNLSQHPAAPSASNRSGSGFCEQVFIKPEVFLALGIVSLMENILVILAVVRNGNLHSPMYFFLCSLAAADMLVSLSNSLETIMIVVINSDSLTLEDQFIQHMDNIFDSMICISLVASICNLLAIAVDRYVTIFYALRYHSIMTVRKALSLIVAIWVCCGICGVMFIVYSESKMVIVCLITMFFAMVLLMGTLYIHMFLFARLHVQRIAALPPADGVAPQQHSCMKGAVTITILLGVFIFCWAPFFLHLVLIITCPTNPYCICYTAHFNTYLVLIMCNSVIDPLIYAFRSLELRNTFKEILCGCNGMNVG

[12] = target: T1, Melanocortin receptor 5; assay: Concentration for 50% inhibition of human melanocortin-5 receptor expressed in CHO cells using [125I]NDP-alpha-MSH as radioligand; type: cell-based
[13] = target: Melanocortin receptor 4 (Mus musculus) (UniProt P56450); assay: Concentration of compound at 50% maximum cAMP accumulation at mouse melanocortin-4 receptor; type: functional
Melanocortin receptor 4 (Mus musculus), sequence (P56450 whole entry): as the sequence (P70596 whole entry) above, with H21Y, S36P, T199S, A239T, P329S, G330S counted along it

[14] = Half life at 0.5 mg/kg intravenous administration and 2 mg/kg peroral administration; type: ADME, organism-based, Canis lupus familiaris; conditions: dog, in vivo
[15] = Percent bioavailability at 0.5 mg/kg intravenous administration and 2 mg/kg peroral administration; type: ADME, organism-based, Canis lupus familiaris; conditions: dog, in vivo, po
[16] = Half life at 1 mg/kg intravenous administration and 2 mg/kg peroral administration; type: ADME, organism-based; conditions: cercopithecidae, in vivo
[17] = Maximum time taken by the compound at 1 mg/kg intravenous administration and 2 mg/kg peroral administration; type: ADME, organism-based; conditions: cercopithecidae, in vivo, po
[18] = test system: Rattus norvegicus; assay: Percent increase in erectile activity in rats after intravenous administration of 3 mg/kg compound; type: functional
[19] = target: T4, Melanocyte-stimulating hormone receptor (Homo sapiens, UniProt Q01726); assay: Effective concentration towards human melanocortin-1 receptor mediated cAMP accumulation in CHO cells; type: functional, cell-based
Target sequence in this assay (Q01726 whole entry): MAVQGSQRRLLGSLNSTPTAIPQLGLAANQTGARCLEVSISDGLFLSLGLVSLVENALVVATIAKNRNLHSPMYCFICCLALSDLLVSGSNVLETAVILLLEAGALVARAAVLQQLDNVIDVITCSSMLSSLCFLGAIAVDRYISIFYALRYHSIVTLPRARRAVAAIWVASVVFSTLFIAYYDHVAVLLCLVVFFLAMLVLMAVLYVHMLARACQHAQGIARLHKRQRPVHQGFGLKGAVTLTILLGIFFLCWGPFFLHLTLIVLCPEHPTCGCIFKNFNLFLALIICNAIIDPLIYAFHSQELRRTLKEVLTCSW

[20] = Clearance at 0.5 mg/kg intravenous administration and 2 mg/kg peroral administration; type: ADME, organism-based, Canis lupus familiaris; conditions: dog, in vivo
[21] = Maximum time taken by the compound at 0.5 mg/kg intravenous administration and 2 mg/kg peroral administration; type: ADME, organism-based, Canis lupus familiaris; conditions: dog, in vivo, po
[22] = Vdss at 0.5 mg/kg intravenous administration and 2 mg/kg peroral administration; type: ADME, organism-based, Canis lupus familiaris; conditions: dog, in vivo, read-out: Vdss
[23] = Percentage of cAMP accumulation at 10 uM of compound relative toa-MSH was determined; type: functional
[24] = Vdss at 1 mg/kg intravenous administration and 5 mg/kg peroral administration; type: ADME, organism-based; conditions: rat, in vivo, read-out: Vdss
[25] = Half life at 1 mg/kg intravenous administration and 5 mg/kg peroral administration; type: ADME, organism-based; conditions: rat, in vivo
[26] = Maximum time taken by the compound at 1 mg/kg intravenous administration and 5 mg/kg peroral administration; type: ADME, organism-based; conditions: rat, in vivo, po
[27] = Percent bioavailability at 1 mg/kg intravenous administration and 2 mg/kg peroral administration; type: ADME, organism-based; conditions: cercopithecidae, in vivo, po
[28] = Percent bioavailability at 1 mg/kg intravenous administration and 5 mg/kg peroral administration; type: ADME, organism-based; conditions: rat, in vivo, po
[29] = target: T4, Melanocyte-stimulating hormone receptor; assay: Concentration for 50% inhibition of human melanocortin-1 receptor expressed in CHO cells using [125I]-NDP-alpha-MSH as radioligand; type: cell-based
Target sequence in this assay (Q01726 whole entry): as above

[30] = target: T4, Melanocyte-stimulating hormone receptor; assay: Concentration of compound at 50% maximum cAMP accumulation at human melanocortin-1 receptor; type: functional
Target sequence in this assay (Q01726 whole entry, looked up): as the sequence (Q01726 whole entry) above

[31] = Clearance at 1 mg/kg intravenous administration and 2 mg/kg peroral administration; type: ADME, organism-based; conditions: cercopithecidae, in vivo

For `CN1CCN[C@H](C(=O)N[C@@H](Cc2ccc(F)cc2)C(=O)N2CCC(C(=O)NC(C)(C)C)(C3CCCCC3)CC2)C1`, the cAMP accumulation [1] was 3% and the cAMP accumulation [2] was 1%.
`C[C@H](N)C(=O)N1CCN[C@H](C(=O)N[C@H](Cc2ccc(F)cc2)C(=O)N2CCC(C(=O)NC(C)(C)C)(C3CCCCC3)CC2)C1` gave an IC50 [3] of 30 nM, a cAMP accumulation [1] of 27% and an EC50 [4] of 2000 nM. It also gave an EC50 [5] of 270 nM and a cAMP accumulation [2] of 12%.
With `CC(C)(C)NC(=O)C1(C2CCCCC2)CCN(C(=O)[C@@H](Cc2ccc(F)cc2)NC(=O)[C@@H]2CNCCN2C(=O)OC(C)(C)C)CC1` the IC50 [3] was 18 nM, the cAMP accumulation [1] was 43% and the EC50 [4] was 1800 nM. It also gave an EC50 [5] of 13 nM and a cAMP accumulation [2] of 10%.
In the case of `CC(C)CN1CCN[C@H](C(=O)N[C@H](Cc2ccc(F)cc2)C(=O)N2CCC(C(=O)NC(C)(C)C)(C3CCCCC3)CC2)C1`, the IC50 [3] is reported as 8 nM, the cAMP accumulation [1] is reported as 22% and the EC50 [4] is reported as 340 nM. The EC50 [5] was 34 nM and the cAMP accumulation [2] was 19%.
With `CCN1CCN[C@H](C(=O)N[C@H](Cc2ccc(F)cc2)C(=O)N2CCC(C(=O)NC(C)(C)C)(C3CCCCC3)CC2)C1` the IC50 [3] was 20 nM, the cAMP accumulation [1] was 20% and the EC50 [4] was 840 nM. For the same compound, the EC50 [5] was 52 nM and the cAMP accumulation [2] was 3%.
For `CN1CCNC[C@H]1C(=O)N[C@H](Cc1ccc(F)cc1)C(=O)N1CCC(C(=O)NC(C)(C)C)(C2CCCCC2)CC1`, the IC50 [3] was 87 nM, the cAMP accumulation [1] was 19% and the EC50 [4] was 3300 nM. It also gave an EC50 [5] of 29 nM, an EC50 [6] of 2900 nM and a cAMP accumulation [2] of 19%.
For `CN1CCN[C@H](C(=O)N[C@H](Cc2ccc(F)cc2)C(=O)N2CCC(C(=O)NC(C)(C)C)(C3CCCCC3)CC2)C1`, the IC50 [7] was 2300 nM and 1100 nM and 1600 nM, the clearance [8] was 48.7 mL/min/kg and the IC50 [3] was 8 nM and 7 nM and 16 nM (2×). The Vd [9] was 1.2 L/kg, the cAMP accumulation [10] was 76% and the cAMP accumulation [11] was 21%. For the same compound, the IC50 [12] was 2.4 µM and 13 µM, the cAMP accumulation [13] was 66% and the half-life [14] was 246 min. The bioavailability [15] was 17%, the half-life [16] was 78 min and the Tmax [17] was 5 h. It also gave an Activity [18] of 21.2%, an EC50 [19] of 350 nM and a clearance [20] of 5.6 mL/min/kg. For the same compound, the Tmax [21] was 45 min, the Vd [22] was 1.2 L/kg and the Activation [23] was 4% and 7% and 11%. For the same compound, the Vd [24] was 5.4 L/kg, the half-life [25] was 96 min and the Tmax [26] was 1.54 h. For the same compound, the bioavailability [27] was 11%, the bioavailability [28] was 9% and the IC50 [29] was 1700 nM. The cAMP accumulation [1] was 32%, the EC50 [4] was 1900 nM and the EC50 ([4]; cho) was 1900 nM. The EC50 [5] was 11 nM (2×) and 6 nM and 16 nM, the cAMP accumulation [30] was 85% and the EC50 [6] was 990 nM. The cAMP accumulation [2] was 11% and the clearance [31] was 15.7 mL/min/kg.
For `CN1CCN[C@@H](C(=O)N[C@H](Cc2ccc(F)cc2)C(=O)N2CCC(C(=O)NC(C)(C)C)(C3CCCCC3)CC2)C1`, the IC50 [3] was 52 nM, the cAMP accumulation [1] was 39% and the EC50 [4] was 2700 nM. The EC50 [5] was 82 nM and the cAMP accumulation [2] was 7%.
With `CC(C)(C)NC(=O)C1(C2CCCCC2)CCN(C(=O)[C@@H](Cc2ccc(F)cc2)NC(=O)[C@@H]2CN(CC(F)F)CCN2)CC1` the IC50 [3] was 13 nM, the cAMP accumulation [1] was 19% and the EC50 [4] was 510 nM. It also gave an EC50 [5] of 52 nM and a cAMP accumulation [2] of 6%.
